From PubChem BioAssay (NCI)
Where “and” joins values, the source holds several entries; their conditions need not be identical. Identical values can stand only once.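 Each compound was tested at five concentrations against cells in 96-well plates for 48 hours. Here, GI50 denotes the concentration required for 50% inhibition of growth. The concentration for full growth arrest is given as TGI.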

Assays:
Assay in all cases: NCI tumour cell line growth inhibition, 48 h
TK-10 renal = system: TK-10 renal
MALME-3M melanoma = system: MALME-3M melanoma
SW-620 colon = system: SW-620 colon
OVCAR-4 ovarian = system: OVCAR-4 ovarian
NCI-H23 lung = system: NCI-H23 lung
SF-268 CNS = system: SF-268 CNS
MDA-MB-435 = system: MDA-MB-435
ACHN renal = system: ACHN renal
MOLT-4 leukemia = system: MOLT-4 leukemia
HT29 colon = system: HT29 colon

SMILES | TGI (TK-10 renal) | TGI (MALME-3M melanoma) | TGI (SW-620 colon) | TGI (OVCAR-4 ovarian) | TGI (NCI-H23 lung) | TGI (SF-268 CNS) | TGI (MDA-MB-435) | TGI (ACHN renal) | TGI (MOLT-4 leukemia) | TGI (HT29 colon) | GI50 (TK-10 renal) | GI50 (SW-620 colon) | GI50 (NCI-H23 lung) | GI50 (SF-268 CNS) | GI50 (MDA-MB-435) | GI50 (ACHN renal) | GI50 (MOLT-4 leukemia) | GI50 (HT29 colon) | GI50 (MALME-3M melanoma) | GI50 (OVCAR-4 ovarian)
NC(CO)C(=O)NCC(=O)O (configuration not stated) | > 100 µM | > 100 µM | > 100 µM | > 100 µM | > 100 µM | > 100 µM | > 100 µM | > 100 µM | > 100 µM | > 100 µM | – | – | – | – | – | – | – | – | – | –
Cc1cn2c(/C=N/N=C(N)N)c(-c3ccsc3)nc2s1 | 27.5 µM | – | 23.3 µM | – | 30.5 µM | 44.3 µM | 24.6 µM | 13.6 µM | > 100 µM | > 100 µM | 13.4 µM | 5.67 µM | 15.8 µM | 14.6 µM | 11.1 µM | 3.08 µM | > 100000 nM | 18.6 µM | – | –
Oc1c(CNCCNCc2cc(Cl)cc(Cc3ccccc3)c2O)cc(Cl)cc1Cc1ccccc1 | > 100 µM | 7.6 µM | 30.7 µM | > 100 µM | 17.6 µM | > 100 µM | 13.2 µM | 11.8 µM | > 100 µM | 20 µM | 0.228 µM | 0.472 µM | 0.668 µM | 0.224 µM | 0.435 µM | 0.127 µM | 342 nM | 0.668 µM | 0.6 µM | 0.0806 µM
Oc1ccccc1C=Nc1ccccc1N=Cc1ccccc1O.[Cu+2] | 23.8 µM | 21.2 µM | 24.4 µM | 19 µM | 14 µM | 17.5 µM | 17 µM | 22.2 µM | > 100 µM | 32 µM | 10.5 µM | 10.6 µM | 3.16 µM | 4.35 µM | 4.38 µM | 5.64 µM | 3840 nM | 13.7 µM | 6.52 µM | 5.79 µM
N=C(N)SCc1ccc([N+](=O)[O-])cc1[N+](=O)[O-] | 19.7 µM | 18.7 µM | – | 18.7 µM | 36.2 µM | 69.8 µM | 29.3 µM | 21.1 µM | 20.2 µM | 18.9 µM | 5.9 µM | – | 10.6 µM | 13.9 µM | 11.8 µM | 8.04 µM | 3070 nM | 5.44 µM | 3.48 µM | 6.01 µM
COc1ccc2nccc(/C=C/c3ccnc4ccc(OC)cc34)c2c1 | > 63.4 µM | 48.1 µM | > 100 µM | > 52.5 µM | > 100 µM | > 100 µM | > 100 µM | > 100 µM | > 100 µM | > 100 µM | > 45.2 µM | 39.8 µM | > 100 µM | > 91.6 µM | > 79.5 µM | > 71 µM | > 55100 nM | > 69.9 µM | 22.1 µM | 21.7 µM
COc1cc2c(cc1O)C(c1cc(O)c(O)c(OC)c1)C(O)(C(=O)O)C(CO)C2O (configuration not stated) | > 100 µM | > 100 µM | 76.5 µM | > 100 µM | > 100 µM | > 100 µM | 37 µM | > 100 µM | 44.3 µM | > 100 µM | – | – | – | – | – | – | – | – | – | –
NCCN1C(=O)c2ccccc2C1(O)c1ccc(Cl)cc1 (configuration not stated) | 36.1 µM | 27.2 µM | 36.6 µM | > 100 µM | > 100 µM | 57.1 µM | 28.6 µM | 59.3 µM | 38.8 µM | 39.8 µM | – | – | – | – | – | – | – | – | – | –
CC12CCC(O)CC1=CCC1C2CCC2(C)C(c3cccnc3)=CCC12 (configuration not stated) | > 100 µM | > 100 µM | > 100 µM | > 100 µM | > 100 µM | > 100 µM | > 100 µM | > 100 µM | > 100 µM | > 100 µM | > 100 µM | > 100 µM | > 100 µM | 95.2 µM | 83.7 µM | > 100 µM | > 100000 nM | 82.2 µM | > 100 µM | > 100 µM
CC(OC(=O)N(N(CCCl)S(C)(=O)=O)S(C)(=O)=O)c1ccc([N+](=O)[O-])cc1 (configuration not stated) | > 100 µM | > 100 µM | > 100 µM | > 100 µM | > 100 µM | > 100 µM | > 100 µM | > 100 µM | > 100 µM | > 100 µM | > 66.2 µM | > 67.9 µM | 39.1 µM | > 100 µM | 99.4 µM | > 100 µM | 43100 nM | 65 µM | 41.5 µM | 73.5 µM
CN(C)CCNc1nc2ccccc2c2occc12 | > 100 µM | – | > 100 µM | 82.2 µM | > 100 µM | > 100 µM | > 100 µM | 85.8 µM | > 100 µM | – | 60.5 µM | 63.4 µM | 69.5 µM | 46.6 µM | 54.5 µM | 28.2 µM | 20300 nM | – | – | 26.3 µM
Cc1ccc(C)c2c(N=Nc3ccccc3[N+](=O)[O-])c(O)[nH]c12 | > 100 µM | – | > 100 µM | > 100 µM | > 100 µM | > 100 µM | > 100 µM | > 100 µM | > 100 µM | – | – | – | – | – | – | – | – | – | – | –
CCCCN1CCN(c2ccc3nc(-c4ccc5nc(-c6ccc(OCC)c(OCC)c6)[nH]c5c4)[nH]c3c2)CC1 | 5.17 µM | – | 1.79 µM | 3.21 µM | – | 22 µM | 2.39 µM | 2.12 µM | 3.86 µM | 2.97 µM | 1.66 µM | 0.474 µM | – | 2.66 µM | 1.09 µM | 0.922 µM | 1220 nM | 0.802 µM | – | 1.48 µM
COc1ccc(C#CC2=C(c3cc(OC)c(OC)c(OC)c3)C(=O)OC2)cc1 | > 50 µM | – | – | > 50 µM | 17.3 µM | > 50 µM | 7.82 µM | 25.3 µM | > 50 µM | > 50 µM | 1.77 µM | – | 5.77 µM | 2.23 µM | 1.49 µM | 5.89 µM | 1100 nM | 2.66 µM | – | 1.51 µM
CCCC#CCOC(=O)c1cc([N+](=O)[O-])cc([N+](=O)[O-])c1 | > 100 µM | 69.1 µM | > 100 µM | – | > 100 µM | > 100 µM | > 100 µM | > 100 µM | > 100 µM | > 100 µM | – | – | – | – | – | – | – | – | – | –
Cc1cc2c(=O)[nH]c(N)nc2nc1C | > 100 µM | > 100 µM | > 100 µM | > 100 µM | > 100 µM | > 100 µM | > 100 µM | > 100 µM | – | > 100 µM | – | – | – | – | – | – | – | – | – | –
COc1ccc(-c2nc(-c3nc4ccc(C(F)(F)F)cc4[nH]3)c3ccccn23)cc1 | > 100 µM | > 100 µM | > 100 µM | – | > 100 µM | > 100 µM | > 100 µM | > 100 µM | > 100 µM | > 100 µM | > 100 µM | > 100 µM | > 100 µM | > 100 µM | 47 µM | 63.5 µM | 2810 nM | 58.2 µM | > 100 µM | –
Oc1c2c(c(O)c3ccccc13)C1(N=N2)c2ccccc2Oc2ccccc21 | 23 µM | 9.28 µM | 18.1 µM | – | > 100 µM | 25.5 µM | 17.9 µM | 16 µM | > 100 µM | 30.2 µM | – | – | – | – | – | – | – | – | – | –
O=C1N[C@H]2[C@H](O)[C@H](O)[C@@H](O)[C@H](O)[C@@H]2c2cc3c(c(O)c21)OCO3 | 3.55 µM and 1.69 µM | – | – | – | 0.712 µM and 2.18 µM and 0.677 µM | – | 1.3 µM and 0.14 µM | – | – | 3.84 µM and 0.44 µM | 0.0561 µM | 0.239 µM and 0.25 µM | 0.241 µM and 0.375 µM | 0.269 µM and 1.36 µM | 0.0249 µM | – | 196 nM and 575 nM | 0.3 µM and 0.36 µM | 0.266 µM and 0.275 µM | 0.189 µM and 0.373 µM
CCc1ncnc2cc(OCC3CO3)c(OC)cc12 (configuration not stated) | 69.5 µM | 42 µM | > 50.8 µM | 24.7 µM | 16.2 µM | > 100 µM | 21.7 µM | 21.6 µM | – | > 100 µM | – | – | – | – | – | – | – | – | – | –
CSc1nc(N)c2c(n1)NC(c1ccccc1)C1CCc3ccccc3C1=N2 (configuration not stated) | > 100 µM | > 100 µM | – | > 100 µM | > 100 µM | > 100 µM | > 100 µM | > 100 µM | 38.8 µM | > 100 µM | > 100 µM | – | 6.16 µM | > 100 µM | 55.5 µM | 84.4 µM | 1850 nM | 7.63 µM | > 100 µM | 4.38 µM
C[n+]1c(/C=C/c2ccc(/C=N/NC(=O)c3ccc(C(=O)N/N=C/c4ccc(/C=C/c5cn6ccccc6[n+]5C)cc4)cc3)cc2)cn2ccccc21 | > 100 µM | > 100 µM | > 100 µM | – | > 100 µM | > 100 µM | > 100 µM | > 100 µM | 92.4 µM | > 100 µM | – | – | – | – | – | – | – | – | – | –
COc1cc(NC(C)CCCN)c2ncccc2c1Sc1ccc(Cl)cc1 (configuration not stated) | 3.5 µM | – | 3.08 µM | 3.1 µM | 3.3 µM | 6.61 µM | 3.57 µM | 3.22 µM | 4.16 µM | 3.5 µM | 2.01 µM | 1.61 µM | 1.7 µM | 2.43 µM | 1.86 µM | 1.79 µM | 1840 nM | 1.9 µM | – | 1.72 µM
